{
  "source": "paper PMC8175350",
  "about": "“Drug repurposing screens identify chemical entities for the development of COVID-19 interventions” (Nature Communications, 2021)",
  "key": {"[1]": {"system": "HEK293T", "conditions": "human, 72 h"}, "[2]": {"system": "SARS-CoV-2", "assay": "microbe, parasite or virus in culture", "type": "cell-based", "conditions": "for Emax: Severe acute respiratory syndrome coronavirus 2, HeLa-ACE2, 24 h, read-out: HeLa-ACE2 CoV-2 Sinf Average; for EC50: read-out: HeLa-ACE2 CoV-2 EC50 GeoMean; for HeLa-ACE2 SI: selectivity index, uninfected HeLa-ACE2 CC50 / SARS-CoV-2 EC50"}, "[3]": {"assay": "in vitro", "conditions": "human, Calu-3 uninfected cytotoxicity CC50 GeoMean"}, "[4]": {"system": "HepG2", "conditions": "human, 72 h"}, "[5]": {"assay": "in vitro", "conditions": "human"}, "[6]": {"system": "HeLa-ACE2 cells", "assay": "cells", "type": "cell-based, human", "conditions": "Homo sapiens, HeLa-ACE2; read-out: HeLa-ACE2 TOA cell count EC50 GeoMean"}, "[7]": {"system": "SARS-CoV-2", "assay": "microbe, parasite or virus in culture", "type": "cell-based", "conditions": "for EC50: Severe acute respiratory syndrome coronavirus 2, Calu-3, read-out: Calu-3 CoV-2 EC50 GeoMean"}, "[8]": {"system": "Calu-3 cells"}, "[9]": {"system": "Calu-3 cells", "assay": "cells", "conditions": "Homo sapiens"}, "[10]": {"system": "SARS-CoV-2", "assay": "microbe, parasite or virus in culture", "type": "cell-based", "conditions": "for EC50: read-out: HeLa-ACE2 TOA CoV-2 EC50 GeoMean; for SARS-CoV-2 % infected cells: 10 µM after 1 h infection"}, "[11]": {"system": "HeLa-ACE2 cells", "assay": "Uninfected HeLa-ACE2 24 h live/dead cytotoxicity counter screen", "type": "cell-based, human"}, "[12]": {"assay": "Uninfected HeLa-ACE2 24 h live/dead cytotoxicity counter screen", "type": "cell-based, human", "conditions": "human, uninfected HeLa-ACE2 cells, read-out: HeLa-ACE2 uninfected cytotoxicity CC50 GeoMean"}, "[13]": {"assay": "in vitro", "conditions": "human", "remark": "listed apart in the source"}, "[14]": {"system": "HeLa-ACE2 cells", "assay": "cells", "conditions": "Homo sapiens"}, "[15]": {"system": "HeLa-ACE2 cells", "assay": "Total cell count in the HeLa-ACE2 TOA (time of addition) assay", "type": "cell-based, human", "conditions": "Homo sapiens, HeLa-ACE2; read-out: HeLa-ACE2 TOA cell count EC50 GeoMean"}, "[16]": {"system": "HEK293T", "assay": "HEK293T 72 h CellTiter-Glo cytotoxicity", "conditions": "72 h"}, "[17]": {"assay": "HEK293T 72 h CellTiter-Glo cytotoxicity", "conditions": "human, HEK293T cells"}, "[18]": {"system": "HepG2", "assay": "HepG2 72 h CellTiter-Glo cytotoxicity", "conditions": "72 h"}, "[19]": {"assay": "HepG2 72 h CellTiter-Glo cytotoxicity", "conditions": "human, HepG2 cells"}, "[20]": {"system": "SARS-CoV-2", "type": "cell-based", "conditions": "combination with remdesivir"}, "[21]": {"system": "Calu-3 cells", "assay": "Uninfected Calu-3 48 h Cell-Titer Glo cytotoxicity counter screen", "conditions": "human, uninfected Calu-3 cells, 48 h"}, "[22]": {"assay": "Uninfected Calu-3 48 h Cell-Titer Glo cytotoxicity counter screen", "conditions": "human, uninfected Calu-3 cells, Calu-3 uninfected cytotoxicity CC50 GeoMean"}, "[23]": {"system": "COVID-19", "conditions": "ref [9]; cited from earlier work"}, "[24]": {"conditions": "curve plateau at infinite concentration"}, "[25]": {"conditions": "Severe acute respiratory syndrome coronavirus 2, HeLa-ACE2, detail block"}, "[26]": {"conditions": "Severe acute respiratory syndrome coronavirus 2, HeLa-ACE2, detail column"}},
  "note": "Several values for one entry are separate records, joined by “and”; a condition that tells them apart may be missing. Identical values can stand only once. Counter-ions that a name gives are not always drawn. Like-named read-outs stand apart in the source and are kept apart here.",
  "data": [
    {"molecule": "Oc1ccc(Nc2ccnc3cc(Cl)ccc23)cc1CN1CCCC1", "note": "[Amopyroquine]", "values": [
      {"measurement": "HEK293T 72-hour cytotoxicty Sinf Average", "setting": "[1]", "value": -103, "unit": "%"},
      {"measurement": "Emax", "setting": "[2]; [24]", "value": 100, "unit": "%"},
      {"measurement": "EC50", "setting": "[2]; [25]", "value": 0.904, "unit": "µM"},
      {"measurement": "HeLa-ACE2 SI", "setting": "[2]", "value": 19.02},
      {"measurement": "CC50 at 48 h", "setting": "[3]", "value": 18.7, "unit": "µM"},
      {"measurement": "HepG2 72-hour cytotoxicity Sinf Average", "setting": "[4]", "value": -102, "unit": "%"},
      {"measurement": "CC50 at 72 h", "setting": "[5]", "value": 6.39, "unit": "µM"},
      {"measurement": "EC50", "setting": "[6]", "value": "> 9.59", "unit": "µM"},
      {"measurement": "Emax", "setting": "[7]; Severe acute respiratory syndrome coronavirus 2, Calu-3, 48 h, curve plateau at infinite concentration, read-out: Calu-3 CoV-2 Sinf Average", "value": 100, "unit": "%"},
      {"measurement": "EC50", "setting": "[7]; detail block", "value": "> 9.98", "unit": "µM"},
      {"measurement": "Calu-3 SI", "setting": "[7]; selectivity index, uninfected Calu-3 CC50 / Calu-3 SARS-CoV-2 EC50", "value": 1.87},
      {"measurement": "uninfected Calu-3 CC50", "setting": "[8]", "value": "18.669 ×÷ 1.171 (n=3) μM"},
      {"measurement": "Calu-3 uninfected cytotoxicity Sinf Average", "setting": "[8]; human, 48 h", "value": -96, "unit": "%"},
      {"measurement": "EC50", "setting": "[9]; Calu-3, read-out: Calu-3 cell count EC50 GeoMean, detail block", "value": "> 9.98", "unit": "µM"},
      {"measurement": "Emax", "setting": "[10]; Severe acute respiratory syndrome coronavirus 2, HeLa-ACE2, 10 h, curve plateau at infinite concentration, read-out: HeLa-ACE2 TOA CoV-2 Sinf Average", "value": 100, "unit": "%"},
      {"measurement": "EC50", "setting": "[10]; [25]", "value": "> 9.59", "unit": "µM"},
      {"measurement": "TOA:HeLa-ACE2 EC50 Ratio", "setting": "[10]; TOA EC50 / HeLa-ACE2 SARS-CoV-2 EC50", "value": 10.603},
      {"measurement": "HeLa-ACE2 uninfected cytotoxicity Sinf Average", "setting": "[11]; [24]", "value": -100, "unit": "%"},
      {"measurement": "CC50 at 24 h", "setting": "[12]; detail block", "value": 17.2, "unit": "µM"},
      {"measurement": "CC50 at 72 h", "setting": "[13]", "value": 6.31, "unit": "µM"},
      {"measurement": "EC50", "setting": "[14]; HeLa-ACE2, read-out: HeLa-ACE2 cell count EC50 GeoMean, detail block", "value": "> 9.59", "unit": "µM"}
    ]},
    {"molecule": "CCN(CCO)CCCC(C)Nc1ccnc2cc(Cl)ccc12", "note": "(centres unmarked) [Hydroxychloroquine sulfate]", "values": [
      {"measurement": "EC50", "setting": "[15]", "value": "> 9.61", "unit": "µM"},
      {"measurement": "Emax", "setting": "[2]", "value": 100, "unit": "%"},
      {"measurement": "EC50", "setting": "[2]; [26]", "value": 0.458, "unit": "µM"},
      {"measurement": "HeLa-ACE2 SI", "setting": "[2]", "value": "> 40.04"},
      {"measurement": "HEK293T 72-hour cytotoxicty Sinf Average", "setting": "[16]", "value": -101, "unit": "%"},
      {"measurement": "CC50 at 72 h", "setting": "[17]", "value": 10.1, "unit": "µM"},
      {"measurement": "HepG2 72-hour cytotoxicity Sinf Average", "setting": "[18]", "value": -100, "unit": "%"},
      {"measurement": "CC50 at 72 h", "setting": "[19]", "value": 3.62, "unit": "µM"},
      {"measurement": "HeLa-ACE2 synergy score with remdesivi", "setting": "[20]", "value": "-1.572 δ"},
      {"measurement": "Calu-3 uninfected cytotoxicity Sinf Average", "setting": "[21]", "value": -100, "unit": "%"},
      {"measurement": "CC50 at 48 h", "setting": "[22]", "value": "> 24.7", "unit": "µM"},
      {"measurement": "EC50", "setting": "[7]", "value": "> 9.99", "unit": "µM"},
      {"measurement": "mortality of hospitalized COVID-19 patients", "setting": "[23]", "value": "failed to reduce mortality"},
      {"measurement": "cytotox", "setting": "[8]; human", "value": 13.7874},
      {"measurement": "EC50", "setting": "[9]; Calu-3, read-out: Calu-3 cell count EC50 GeoMean", "value": "> 9.99", "unit": "µM"},
      {"measurement": "TOA:HeLa-ACE2 EC50 Ratio", "setting": "[10]", "value": 20.968},
      {"measurement": "SARS-CoV-2 % infected cells", "setting": "[10]; 4:00:00 post infection", "value": "0.3802% and 0.1721% and 0.1129%"},
      {"measurement": "SARS-CoV-2 % infected cells", "setting": "[10]; 5:00:00", "value": "0.24% and 0.7413% and 0.2751%"},
      {"measurement": "SARS-CoV-2 % infected cells", "setting": "[10]; 6:00:00", "value": "11.7654% and 10.6398% and 10.3646%"},
      {"measurement": "SARS-CoV-2 % infected cells", "setting": "[10]; 7:00:00", "value": "25.8166% and 25.8417% and 29.0337%"},
      {"measurement": "SARS-CoV-2 % infected cells", "setting": "[10]; 8:00:00", "value": "31.116% and 29.6088% and 30.8104%"},
      {"measurement": "SARS-CoV-2 % infected cells", "setting": "[10]; 10:00:00", "value": "33.0276% and 34.8116% and 35.0891%"},
      {"measurement": "SARS-CoV-2 % infected cells", "setting": "[10]; 11:00:00", "value": "35.46% and 36.5434% and 36.8817%"},
      {"measurement": "SARS-CoV-2 % infected cells", "setting": "[10]; 12:00:00", "value": "33.0004% and 35.9224% and 38.4986%"},
      {"measurement": "SARS-CoV-2 % infected cells", "setting": "[10]; 24:00:00", "value": "45.3401% and 44.0948% and 41.0805%"},
      {"measurement": "activity when treatment was initiated at 1 hpi", "setting": "[10]; HeLa-ACE2, 10 µM", "value": "Loss of activity"},
      {"measurement": "EC50", "setting": "[10]; [26]", "value": "> 9.61", "unit": "µM"},
      {"measurement": "HeLa-ACE2 uninfected cytotoxicity Sinf Average", "setting": "[11]; human, uninfected HeLa-ACE2 cells, 24 h", "value": -99, "unit": "%"},
      {"measurement": "CC50 at 24 h", "setting": "[12]", "value": "> 18.3", "unit": "µM"},
      {"measurement": "Emax", "setting": "[14]; HeLa-ACE2, 24 h, read-out: HeLa-ACE2 cell count Sinf Average", "value": -47, "unit": "%"},
      {"measurement": "EC50", "setting": "[14]; HeLa-ACE2, read-out: HeLa-ACE2 cell count EC50 GeoMean", "value": "> 5.88", "unit": "µM"}
    ]},
    {"molecule": "interferon", "values": [
      {"measurement": "mortality of hospitalized COVID-19 patients", "setting": "[23]", "value": "failed to reduce mortality"}
    ]}
  ]
}
